Test results reported in PubChem BioAssay (NCI).
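96-well plates; 48 h exposure; 5 concentrations. Endpoints by linear interpolation between flanking doses. Not reached: highest tested concentration assigned. TGI: total growth inhibition.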

Key:
Assay in all cases: NCI-60 cell line screen, 48 h
[1] = test system: HT29 colon
[2] = test system: CCRF-CEM leukemia
[3] = test system: M19-MEL melanoma
[4] = test system: MOLT-4 leukemia
[5] = test system: HL-60(TB) leukemia
[6] = test system: SK-MEL-5 melanoma
[7] = test system: M14 melanoma
[8] = test system: SK-MEL-28 melanoma
[9] = test system: LOX IMVI melanoma
[10] = test system: HCT-15 colon
[11] = test system: SF-295 CNS
[12] = test system: OVCAR-3 ovarian
[13] = test system: SF-268 CNS
[14] = test system: OVCAR-5 ovarian
[15] = test system: RXF-631 renal
[16] = test system: U251 CNS
[17] = test system: A549 NSCLC
[18] = test system: DMS 273 small cell lung
[19] = test system: HOP-62 NSCLC
[20] = test system: XF 498 CNS
[21] = test system: NCI-H522 lung
[22] = test system: DLD-1 colon
[23] = test system: CAKI-1 renal
[24] = test system: ACHN renal
[25] = test system: SNB-19 CNS
[26] = test system: A498 renal
[27] = test system: SN12C renal
[28] = test system: NCI-H460 lung
[29] = test system: KM12 colon
[30] = test system: 786-0 renal
[31] = test system: EKVX NSCLC
[32] = test system: RPMI-8226 leukemia
[33] = test system: HOP-92 NSCLC
[34] = test system: IGROV1 ovarian
[35] = test system: KM20L2 colon
[36] = test system: SW-620 colon
[37] = test system: COLO 205 colon
[38] = test system: OVCAR-4 ovarian
[39] = test system: HOP-18 NSCLC
[40] = test system: SNB-78 CNS
[41] = test system: OVCAR-8 ovarian
[42] = test system: LXFL 529 NSCLC
[43] = test system: HCC-2998 colon
[44] = test system: K-562 leukemia
[45] = test system: SK-MEL-2 melanoma
[46] = test system: DMS 114 small cell lung
[47] = test system: SF-539 CNS
[48] = test system: UO-31 renal
[49] = test system: NCI-H23 lung
[50] = test system: TK-10 renal
[51] = test system: MALME-3M melanoma
[52] = test system: UACC-62 melanoma
[53] = test system: RXF 393 renal
[54] = test system: SK-OV-3 ovarian
[55] = test system: NCI-H226 lung
[56] = test system: UACC-257 melanoma
[57] = test system: SNB-75 CNS

For C[C@]12CCc3nonc3C1CC[C@@H]1C2CC[C@]2(C)C(=O)CCC12 (some centres not stated), the TGI [1] was 37.9 µM, the TGI [2] was 57.8 µM and the TGI [3] was 57.2 µM. For the same compound, the TGI [4] was 61.6 µM, the TGI [5] was 39.2 µM and the TGI [6] was 34.2 µM. For the same compound, the TGI [7] was greater than 100 µM, the TGI [8] was greater than 10 µM and the TGI [9] was 47.6 µM. It also gave a TGI [10] greater than 100 µM, a TGI [11] of 83.9 µM and a TGI [12] of 58.7 µM. For the same compound, the TGI [13] was greater than 100 µM, the TGI [14] was greater than 100 µM and the TGI [15] was greater than 100 µM. It also gave a TGI [16] greater than 100 µM, a TGI [17] of 82.5 µM and a TGI [18] of 51.1 µM. It also gave a TGI [19] greater than 100 µM, a TGI [20] of 45 µM and a TGI [21] of 72.2 µM. The TGI [22] was greater than 100 µM, the TGI [23] was 49.2 µM and the TGI [24] was greater than 100 µM. It also gave a TGI [25] greater than 100 µM, a TGI [26] of 78.8 µM and a TGI [27] greater than 100 µM. It also gave a TGI [28] greater than 100 µM, a TGI [29] of 37.4 µM and a TGI [30] greater than 100 µM. It also gave a TGI [31] of 69.4 µM, a TGI [32] of 46.5 µM and a TGI [33] of 55.3 µM. It also gave a TGI [34] greater than 100 µM, a TGI [35] of 82.4 µM and a TGI [36] greater than 100 µM. The TGI [37] was 56.3 µM, the TGI [38] was greater than 100 µM and the TGI [39] was greater than 100 µM. For the same compound, the TGI [40] was greater than 100 µM, the TGI [41] was greater than 100 µM and the TGI [42] was greater than 100 µM. For the same compound, the TGI [43] was 71.2 µM, the TGI [44] was greater than 100 µM and the TGI [45] was 46.8 µM. It also gave a TGI [46] of 60 µM, a TGI [47] of 49.8 µM and a TGI [48] of 68.2 µM. It also gave a TGI [49] greater than 100 µM, a TGI [50] greater than 10 µM and a TGI [51] of 65.7 µM. The TGI [52] was 68.3 µM, the TGI [53] was greater than 100 µM and the TGI [54] was greater than 100 µM. For the same compound, the TGI [55] was greater than 100 µM, the TGI [56] was greater than 10 µM and the TGI [57] was 94.5 µM.
